Measured values: patent US6342537B1, “Gel for treatment of skin diseases and for disinfection of the skin” (priority 1994, dated 2002)
“And” between values parts separate entries of the source, which are not always exact repeats. Equal entries are not always repeated. Where two headings read alike, the source gives them in different places.

Tests used:
[1] = system: herpes labialis eruptions; conditions: in vivo
Excerpt: 23.4—Application of Gelled Alcohol
In this example some of the gelled compositions contained 1.6% by weight HPC and others contained 1.6% by weight EHEC.

[2] = system: herpes labialis eruptions; conditions: glass container; for symptom relief: two early phases
[3] = system: herpes labialis eruptions; test: Herpes labialis eruptions, prolonged contact with impregnated cotton (Example 23.2); format: in vivo, human; conditions: for symptom relief: intensive depot treatment
[4] = system: recurrent herpes genitalia, herpes febrilis (labialis); conditions: nonimmunocompromised patients; cited from earlier work
[5] = system: herpes simplex virus (HSV) type 1; test: Inactivation of herpes simplex virus in infected MRC-5 cells by alcohols (Example 25); format: cell-based; conditions: for HSV - CPE after 44 hours with the detecting cell-layer: duplicate wells; on HSV - CPE after 44 hours with the detecting cell-layer: key: 0: no CPE; 1: a few; 2: several; 3: all cells infected with HSV
Protocol: Ethanol is an accepted disinfectant for viruses with an envelope. The purpose of this study was to measure the inactivating effect of “short-chained alcohols” on virus-infected cells.
Four 96 well plates with confluent MRC-5 cell were infected with herpes simplex virus (HSV) type 1. After appearance of 50% cytopathic effect (CPE), the culture medium was removed, and rows of 12 wells were treated with 25 μl/well of the alcohols or buffer after the following scheme: The first row with undiluted, and the following with 96%, 90%, 80%, 70%, 60% and 50% alcohol, respectively—all dilutions performed in buffer (PBS). To the last row was added buffer. After 2, 4, 8, 16 and 32 min, respectively, two wells in each row were emptied and the cells overlaid with PBS. The plate was then frozen at —80° C. Afterwards the wells were seeded with a detection layer of MRC-5 cells and the plates were placed at 37° C. for 44 hours. Virus surviving the treatment with alcohol was detected by the appearance of CPE, characteristic for HSV in the detection monolayer.

Q: Which results are given for `CCO` [Ethanol 99%]?
A: pain reaction on application in the ulceration phase [1]: slight pain of short duration; eruption abortive effect [2]: clearly observed; eruption shortening effect [2]: likewise observed; symptom relief [2]: very strong symptom relief; abortive effect ([3]; early phase and vesicular phase): some abortive effect; symptom relief [3]: palliative effect on symptom relief

Q: With `CCO` [Ethanol 95%] as the compound, how does the “pain reaction on application in the ulceration phase” value [1] read?
A: slight pain of short duration

Q: What about the “eruption abortive effect” value [2] of the same compound?
A: clearly observed

Q: What about the “eruption shortening effect” value [2] of the same compound?
A: likewise observed

Q: And the “symptom relief” value [2]?
A: very strong symptom relief

Q: And the “symptom relief” value [3]?
A: palliative effect on symptom relief

Q: Which “effectiveness in recurrent herpes genitalia / labialis” value [4] does the source give for `Nc1nc2c(ncn2COCCO)c(=O)[nH]1` [Topical acyclovir, acyclovir] here?
A: not effective

Q: With `CCO` [Ethanol 90%] as the compound, how does the “pain reaction on application in the ulceration phase” value [1] read?
A: less pain or shorter duration

Q: What does the source list for `CO` [Methanol]?
A: HSV - CPE after 44 hours with the detecting cell-layer ([5]; 50% alcohol in PBS, 2 min): 1 and 0; HSV - CPE after 44 hours with the detecting cell-layer ([5]; 50% alcohol in PBS, 4 min): 1; HSV - CPE after 44 hours with the detecting cell-layer ([5]; 50% alcohol in PBS, 8 min): 1 and 2; HSV - CPE after 44 hours with the detecting cell-layer ([5]; 50% alcohol in PBS, 16 min): 2; HSV - CPE after 44 hours with the detecting cell-layer ([5]; 50% alcohol in PBS, 32 min): 1; HSV - CPE after 44 hours with the detecting cell-layer ([5]; 60% alcohol in PBS, 2 min): 1; HSV - CPE after 44 hours with the detecting cell-layer ([5]; 60% alcohol in PBS, 4 min): 0 and 1; HSV - CPE after 44 hours with the detecting cell-layer ([5]; 60% alcohol in PBS, 8 min): 1; HSV - CPE after 44 hours with the detecting cell-layer ([5]; 60% alcohol in PBS, 16 min): 0 and 1; HSV - CPE after 44 hours with the detecting cell-layer ([5]; 60% alcohol in PBS, 32 min): 1; HSV - CPE after 44 hours with the detecting cell-layer ([5]; 70% alcohol in PBS, 2 min): 1; HSV - CPE after 44 hours with the detecting cell-layer ([5]; 70% alcohol in PBS, 4 min): 1; HSV - CPE after 44 hours with the detecting cell-layer ([5]; 70% alcohol in PBS, 8 min): 1; HSV - CPE after 44 hours with the detecting cell-layer ([5]; 70% alcohol in PBS, 16 min): 1; HSV - CPE after 44 hours with the detecting cell-layer ([5]; 70% alcohol in PBS, 32 min): 0 and 1; HSV - CPE after 44 hours with the detecting cell-layer ([5]; 80% alcohol in PBS, 2 min): 1; HSV - CPE after 44 hours with the detecting cell-layer ([5]; 80% alcohol in PBS, 4 min): 0; HSV - CPE after 44 hours with the detecting cell-layer ([5]; 80% alcohol in PBS, 8 min): 1; HSV - CPE after 44 hours with the detecting cell-layer ([5]; 80% alcohol in PBS, 16 min): 0 and 1; HSV - CPE after 44 hours with the detecting cell-layer ([5]; 80% alcohol in PBS, 32 min): 1 and 0; HSV - CPE after 44 hours with the detecting cell-layer ([5]; 90% alcohol in PBS, 2 min): 0; HSV - CPE after 44 hours with the detecting cell-layer ([5]; 90% alcohol in PBS, 4 min): 0; HSV - CPE after 44 hours with the detecting cell-layer ([5]; 90% alcohol in PBS, 8 min): 0 and 1; HSV - CPE after 44 hours with the detecting cell-layer ([5]; 90% alcohol in PBS, 16 min): 1; HSV - CPE after 44 hours with the detecting cell-layer ([5]; 90% alcohol in PBS, 32 min): 1 and 0; HSV - CPE after 44 hours with the detecting cell-layer ([5]; 96% alcohol in PBS, 2 min): 0; HSV - CPE after 44 hours with the detecting cell-layer ([5]; 96% alcohol in PBS, 4 min): 0; HSV - CPE after 44 hours with the detecting cell-layer ([5]; 96% alcohol in PBS, 8 min): 0; HSV - CPE after 44 hours with the detecting cell-layer ([5]; 96% alcohol in PBS, 16 min): 0 and 1; HSV - CPE after 44 hours with the detecting cell-layer ([5]; 96% alcohol in PBS, 32 min): 1 and 0; inactivation of herpes simplex virus (in words) ([5]; HSV type 1 infected MRC-5 cells): able to inactivate herpes simplex virus even intracellular virus; HSV - CPE after 44 hours with the detecting cell-layer ([5]; alcohol undiluted, 2 min with alcohol): 0; HSV - CPE after 44 hours with the detecting cell-layer ([5]; alcohol undiluted, 4 min): 0; HSV - CPE after 44 hours with the detecting cell-layer ([5]; alcohol undiluted, 8 min): 0; HSV - CPE after 44 hours with the detecting cell-layer ([5]; alcohol undiluted, 16 min): 0; HSV - CPE after 44 hours with the detecting cell-layer ([5]; alcohol undiluted, 32 min): 0
